According to patent publication US20240424019A1, “SHP1 MODIFIED DENDRITIC CELLS AND EXTRACELLULAR VESICLES DERIVED THEREFROM AND ASSOCIATED METHODS” (BOARD OF REGENTS, THE UNIVERSITY OF TEXAS SYSTEM, priority 2021, published 2024):

Tests used:
[1] = target: SHP1 immunoprecipitated from LPS-activated DC2.4 cells (UniProt P29351); experiment: SHP1 phosphatase assay (EnzChek tyrosine phosphatase kit), dose-response; format: biochemical, mouse; details: SHP1 from LPS (100 ng/ml)-activated DC2.4 cells; read-out: inhibitory tyrosine phosphatase activity IC50
Excerpt: FIG. 3A: […] FIG. 3B: t-SNEs by CyTOF and quantification comparing the intensity of […]-SHP1 in TADCs from the vehicle-or VitE-treated EMT6 tumors at day 15 post-implantation. FIG. 3C: Top, SHP1 knockdown in BMDCs was effective. Bottom, CFSE-dilution analysis of OT-1 T cells co-cultured with OVA protein-pulsed BMDCs (ratio 10:1) with knockdown of SHP1 by […]6 versus siCtrl (n=3). Right, quantification of OT-1 T-cell numbers under the indicated condition. FIG. 3D: The binding of VitE to purified SHP1 is analyzed by microscale thermophoresis (MST) binding assay. […] FIG. 3E: Relative tyrosine phosphatase activity of SHP1 immunoprecipitated from LPS (100 ng/ml)-activated DC2.4 cells in the presence of indicated doses of VitE (mean of triplicates). FIG. 3F: SHP1 tyrosine phosphatase activity in LPS (100 ng/ml)-activated BMDCs (n=6) treated with vehicle-or VitE (50 μg/ml). Error bars, s.e.m. ns, no significant. *P<0.05, **P<0.01. ***P<0.001, ****P<0.0001. We assessed the phosphatase activity of SHP1 by using the RediPlate 96 EnzChek Tyrosine Phosphatase Assay Kit (ThermoFisher). […] We placed beads into RediPlate wells and incubated them for 30 min at 25° C. before reading them for fluorescence. […] The inhibitor dose-response curves were analyzed using normalized IC50 regression curve fitting with control-based normalization.

B16-FLT3L melanoma = B16-FLT3L melanoma model; format: in vivo, mouse; details: VitE plus ICT
pY564-SHP1 = experiment: Reverse phase protein array (RPPA) of BMDCs; format: cell-based, mouse; details: VitE 50 μg/ml, tumor conditioned media, 48 hours
Description: FIG. 3A: Volcano plot of reverse phase protein array (RPPA) data of mouse BMDCs treated with VitE (50 μg/ml) compared to those treated with vehicle control with tumor conditioned media (TCM) for 48 hours (n=3 independent samples). […] The grey dashed line indicates P-value of 0.05. FIG. 3B: t-SNEs by CyTOF and quantification comparing the intensity of pY564-SHP1 in TADCs from the vehicle-or VitE-treated EMT6 tumors at day 15 post-implantation. FIG. 3C: Top, SHP1 knockdown in BMDCs was effective. Bottom, CFSE-dilution analysis of OT-1 T cells co-cultured with OVA protein-pulsed BMDCs (ratio 10:1) with knockdown of SHP1 by siPtpn6 versus siCtrl (n=3). Right, quantification of OT-1 T-cell numbers under the indicated condition. FIG. 3D: The binding of VitE to purified SHP1 is analyzed by microscale thermophoresis (MST) binding assay. […] FIG. 3E: Relative tyrosine phosphatase activity of SHP1 immunoprecipitated from LPS (100 ng/ml)-activated DC2.4 cells in the presence of indicated doses of VitE (mean of triplicates). FIG. 3F: SHP1 tyrosine phosphatase activity in LPS (100 ng/ml)-activated BMDCs (n=6) treated with vehicle-or VitE (50 μg/ml). Error bars, s.e.m. ns, no significant. *P<0.05, **P<0.01. ***P<0.001, ****P<0.0001.
To explore the molecular mechanism of VitE on DCs function, we performed a reverse-phase protein array (RPPA) analysis on DCs. […]

Scarb1-/-DCs = experiment: BMDCs from Scarb1-/- versus wild-type mice; format: cell-based, mouse
Excerpt: VitE can enter enterocytes via the SCARB1 receptor, and SCARB1 facilitates the uptake of cholesteryl esters from high-density lipoproteins. […] To determine whether SCARB1 is required for VitE-induced DC activation, we generated BMDCs from Scarb1-/-versus wild-type mice. […] Taken together, VitE enters DCs via SCARB1 and binds SHP1 to inhibit pSHP1, leading to DC activation, which increases antitumor T-cell immunity (data not shown; see Yuan et al. 2022, FIG. 4I; see also U.S. Provisional Application No. 63/252,721, FIG. 4D).

B16-F10 melanoma = details: VitE and ICT combo-treatment
Description: For the melanoma tumor challenges, 2×10^5 B16-F10, B16-GMCSF, or B16-FLT3L cells were subcutaneously (s.c.) injected into the right flank of C57BL/6J mice on day 0.
Treatments were given as single agents or in combinations with the indicated regimens for each group. VitE (D-α-Tocopherol type VI, Cat.T1539, Sigma-Aldrich) was formulated in the vehicle (10% ethanol in sterile water) and administered by oral gavage once a day at a dose of 50 mg/kg body weight (100 μl at 10 mg/ml per day), corresponding to 400 to 600 mg/day in a human weighing 60 kg, which is within the range of doses recommended for supplement and pharmacological use. VitE treatment was initiated on day 4 ending until the ending point.
For tumor volume analysis, each tumor was measured every 3-4 days with a digital caliper beginning on day 7 after the challenge. Tumor volume was calculated using the formula V=(L×W^2)/2 and expressed as mm^3, where V is tumor volume, L is the length of the tumor (longer diameter) and W is the width of the tumor (shorter diameter). Mice were monitored for tumor growth and survival. Measurements were assessed manually by assessing the longest dimension (length, L) and the longest perpendicular dimension (width, W). Tumor volume was calculated using the formula: (L×W^2)/2.

Cc1c(C)c2c(c(C)c1O)CC[C@@](C)(CCC[C@H](C)CCC[C@H](C)CCCC(C)C)O2 [VitE, D-α-Tocopherol]
IC50 [1]: 50 to 200 µM
ICT response (B16-FLT3L melanoma): effectively enhanced their ICT responses
phosphorylation of SHP1 at Y564 in DCs (pY564-SHP1): decreased the phosphorylation at tyrosine 564 (Y564)
pY564-SHP1 in Scarb1-/- DCs (Scarb1-/-DCs; VitE treatment, unlike wild-type DCs): failed to inhibit pY564-SHP1
proliferation of cocultured T cells (Scarb1-/-DCs; VitE-treated Scarb1-/- DCs, in contrast to wild-type DCs): did not induce proliferation of cocultured T cells
therapeutic effect (B16-F10 melanoma): no therapeutic effect
